In ChEMBL document CHEMBL1152039, “PIPERIDINE CARBOXYLIC ACID DERIVATIVES AS SIALYL LEWIS X MIMETICS” (Bioorg Med Chem Lett, 1997):

Columns and labels:
[1] = system: Rattus norvegicus; assay: Tested for the inhibition of leukocyte adhesion in rat mesenteric venules in vivo at a dose of 10 mg/kg measured by intravital microscopy.; assay type: functional
[2] = species on record: Oryctolagus cuniculus; assay: Percent incidence of heart arrhythmia and Ventricular fibrillation in isolated rabbit hearts at a concentration of 3 uM.; assay type: functional
[3] = system: Rattus norvegicus; assay: Tested for the inhibition of leukocyte adhesion in rat mesenteric venules in vivo at a dose of 1 mg/kg measured by intravital microscopy.; assay type: functional
[4] = system: Rattus norvegicus; assay: Tested for the inhibition of leukocyte adhesion in rat mesenteric venules in vivo at a dose of 3 mg/kg measured by intravital microscopy.; assay type: functional
[5] = species on record: Oryctolagus cuniculus; assay: Percent incidence of heart arrhythmia and Ventricular fibrillation in isolated rabbit hearts at a concentration of 1 uM.; assay type: functional
[6] = system: HL-60; assay: Tested for the inhibition of HL60 cell adhesion to recombinant P-selectin-IgG fusion protein measured by cell culture assay.; assay type: functional, cell-based; details: Homo sapiens
[7] = system: HL-60; assay: Tested for the inhibition of HL60 cell adhesion to recombinant E-selectin-IgG fusion protein measured by cell culture assay.; assay type: functional, cell-based; details: Homo sapiens

Compound | inhibition in vivo at 10 mg/kg [1] [%] | Incidence [2] [%] | inhibition in vivo at 1 mg/kg [3] [%] | inhibition in vivo at 3 mg/kg [4] [%] | Incidence [5] [%] | IC50 [6] [mM] | IC50 [7] [mM]
CC(=O)N[C@H]1[C@H]([C@@H](O)[C@@H](O)CO)O[C@@](O[C@@H]2[C@H](O)[C@H](O[C@H]3[C@H](O[C@@H]4O[C@@H](C)[C@@H](O)[C@H](O)[C@@H]4O)[C@H](NC(C)=O)C(O)O[C@H]3CO)O[C@@H](CO)[C@@H]2O)(C(=O)O)C[C@H]1O (some centres undefined) | 63 | 50 | 57 |  |  |  | 
CC1OC(OC2CCCCC2OC(=O)N2CCC(C(=O)O)CC2)C(O)C(O)C1O (centres undefined) | 81 |  | 64 | 69 | 50 | > 5 | > 5
CC1OC(OC2CCCCC2OC(=O)N2CCC(C(=O)O)(C(=O)O)CC2)C(O)C(O)C1O (centres undefined) |  |  |  | 49 | 50 | 7.5 | 1.6
O=C(O)C1CCN(C(=O)O[C@@H]2CCCC[C@H]2O[C@H]2O[C@@H](CO)[C@@H](O)[C@H](O)[C@H]2O)CC1 |  |  |  | 56 |  | > 10 | > 10
O=C(O)C1CCN(C(=O)O[C@@H]2CCCC[C@H]2O[C@@H]2O[C@@H](CO)[C@H](O)[C@H](O)[C@H]2O)CC1 |  |  |  | 38 |  | > 10 | 5
